From patent US20070020203A1, “Skin care composition” (priority 2005, published 2007)

Biological target: Mushroom Tyrosinase (Agaricus bisporus, UniProt C7FF04)
Experiment: Comparative tyrosinase inhibitory activity (dopachrome optical density at 475 nm)
Type: biochemical
Description: All measurements were performed at room temperature (24 C) with a Beckman Coulter DU-640 spectrophotometer at a scan speed of 1200 nm/min with a spectral range from 300 to 700 nm.
Buffer solution • KH2PO4 99.8% & KOH 85+% (pH 7.4, 100 mM) • Mol. Wt. 136.09, VWR and Sigma-Aldrich • KH2PO4 (1362 mg) dissolved in distilled water (100 ml) and pH adjusted to 7.4 with a 2 M KOH solution • 2. Mushroom Tyrosinase solution (240 units per 1 ml) • 2440 units/mg, Sigma-Aldrich • Tyrosinase (2.5 mg) dissolved in 25 ml of distilled water • 3. L-DOPA solution (6.3 mM) • Mol. Wt. 197, Sigma-Aldrich • 33.1 mg are dissolved in distilled water (25 ml) • 4. L-Tyrosine solution (1.3 mM) • Mol. Wt. 181.2, Sigma-Aldrich • 23.5 mg are dissolved in distilled water (100 ml) • 5. Hydrogen peroxide solution (5 mM) • Sigma-Aldrich • 1/100 of 0.9/25 vol. dilution of a 50% wt. solution b) Skin Lightening Ingredients • 5. Emblica™ antioxidant (5 mM)—Lot # CA0106007 • Average Mol. Wt. 729, EMD Chemicals / Merck KGaA • Emblica (18.2 mg) dissolved in distilled water (5 ml) • 6. […]
The stock solutions were added in an orderly manner with quantities according to Table 1 as to obtain a final total volume of 3.0 ml for each preparation. […] After 15 min of reaction time, the spectra were recorded between 300 and 700 nm and the optical density at 475 nm (Dopachrome) measured.

Mushroom Tyrosinase, sequence (C7FF04 1-392): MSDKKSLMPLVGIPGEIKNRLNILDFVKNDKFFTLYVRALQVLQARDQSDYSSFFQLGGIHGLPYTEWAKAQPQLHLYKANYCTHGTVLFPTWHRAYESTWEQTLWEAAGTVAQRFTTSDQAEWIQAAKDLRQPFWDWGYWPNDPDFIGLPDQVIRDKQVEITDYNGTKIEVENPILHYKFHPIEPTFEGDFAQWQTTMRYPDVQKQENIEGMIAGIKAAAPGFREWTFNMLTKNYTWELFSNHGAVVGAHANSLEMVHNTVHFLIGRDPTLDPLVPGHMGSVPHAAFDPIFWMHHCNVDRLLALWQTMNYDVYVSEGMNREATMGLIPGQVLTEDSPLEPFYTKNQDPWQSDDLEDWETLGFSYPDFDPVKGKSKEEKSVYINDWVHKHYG
Mushroom Tyrosinase, sequence (G1K3P4 entry or part of it, further chain): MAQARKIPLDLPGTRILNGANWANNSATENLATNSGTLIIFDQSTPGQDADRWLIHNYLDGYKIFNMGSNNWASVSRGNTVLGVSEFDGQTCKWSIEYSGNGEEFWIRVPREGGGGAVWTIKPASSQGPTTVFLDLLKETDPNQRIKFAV

SMILES: Oc1ccc(O)cc1 [Hydroquinone]
- inhibitory activity against tyrosinase (in words) (DOPA as substrate): less effective
- inhibitory activity against tyrosinase (in words) (tyrosine used as a substrate): excellent inhibitory activity
